# Legend:
# [1] = test system: pyrethroid resistant bed bugs; assay: whole plant or invertebrate; type: in vivo; settings: Cimex lectularius, 168 h; 7 days; imidacloprid at 0.05% w/w
# Text: For testing, 10 adult males were transferred into specific bed bug spray containers using soft tissue forceps. Bed bug spray containers were constructed by placing a 150 mm Whatman filter paper (Fisher Scientific, Pittsburgh, Pa., USA) onto the top of a stainless steel, round ring (10 cm in diameter and 3.25 cm in height). A second stainless steel ring of similar dimensions was then stacked on top of the base ring creating a double-ring structure with a filter paper surface in between. The sides of the double ring structure were secured with laboratory labeling tape (Fisher Scientific, Pittsburgh, Pa., USA). In the resulting setup, the filter paper provides a non-abrasive surface for bed bugs to rest on while it also serves to absorb any overspray in the container. Following the transfer of bed bugs from the colony jar, bed bugs were allowed to recover for 1 hour in the spray container before treatment application commenced.
# Treatments were administered using a DeVilbiss 151 atomizer (The DeVilbiss Co., Glendale Heights, Ill., USA) attached to a Paasche D500 air compressor (Paasche Airbrush Company, Chicago, Ill., USA). Treatment volume was set at 0.50 g of treatment solution per replication. […]
# Mortality at day 7 was analyzed by one-way analysis of variance (ANOVA). […]
# [2] = test system: pyrethroid resistant bed bugs, Cimex lectularius (ECL-05 strain); type: in vivo; settings: day 7; 0.05% imidacloprid formulation, not diluted; direct spray 0.50 g per replication
# Experimental: Treatments 1 to 4 were diluted in acetone to 5.5% w/w. Treatment 5 was not diluted.
# The ECL-05 strain of bugs was used in the study. This strain represents an aggregate colony of pyrethroid resistant strains of bed bugs from Minnesota, Wisconsin, Florida and New Jersey.
# Adult male bed bugs, 5 to 6 weeks old, were sorted from the colonies at the University of Minnesota using a pair of soft tissue forceps (Fisher Scientific, Pittsburgh, Pa., USA). Bed bugs were transferred to Applicant and maintained in a glass jar with a mesh screen top, as described above, in an environmental chamber (Darwin Chamber Company, Saint Louis, Mo., USA) at 27° C. and 65% relative humidity until testing.
# For testing, 10 adult males were transferred into specific bed bug spray containers using soft tissue forceps. Bed bug spray containers were constructed by placing a 150 mm Whatman filter paper (Fisher Scientific, Pittsburgh, Pa., USA) onto the top of a stainless steel, round ring (10 cm in diameter and 3.25 cm in height). A second stainless steel ring of similar dimensions was then stacked on top of the base ring creating a double-ring structure with a filter paper surface in between. The sides of the double ring structure were secured with laboratory labeling tape (Fisher Scientific, Pittsburgh, Pa., USA). […]
compound,measurement,setting,value
"O=[N+]([O-])NC1=NCCN1Cc1ccc(Cl)nc1 [Imidacloprid, imidacloprid]",mortality at 0.05 % strength,[1],100%
same,Mortality (%),[2],100.0%
